Source: ChEMBL document CHEMBL5154842, “Unique Carbazole-Oxadiazole Derivatives as New Potential Antibiotics for Combating Gram-Positive and -Negative Bacteria” (J Med Chem, 2022)
Values after ≈ are worked out from the molar mass of the structure shown. Active and inactive are the calls of the source. The calls are words filed in the database; no cut-off is given here.

What was measured:
Staphylococcus aureus [1] = assay: Antibacterial activity against methicillin-resistant Staphylococcus aureus N315 assessed as inhibition of bacterial growth at 0.5 to 16 ug/ml measured after 24 hrs by microplate reader assay; assay type: functional, organism-based; details: dose 0.5-16 µg/ml
Staphylococcus aureus [2] = assay: Antibacterial activity against Staphylococcus aureus 25923 assessed as inhibition of bacterial growth incubated for 24 hrs by CLSI protocol based two fold serial dilution method; assay type: functional
Staphylococcus aureus [3] = assay: Antibacterial activity against Staphylococcus aureus 29213 assessed as inhibition of bacterial growth incubated for 24 hrs by CLSI protocol based two fold serial dilution method; assay type: functional
Staphylococcus aureus [4] = assay: Antibacterial activity against Staphylococcus aureus CMCC (B) 26003 assessed as inhibition of bacterial growth incubated for 24 hrs by CLSI protocol based two fold serial dilution method; assay type: functional
Cell membrane [5] = assay: Induction of cell membrane disruption in methicillin-resistant Staphylococcus aureus N315 assessed as increase in protein leakage at 0.5 to 6 ug/ml incubated under agitation condition by Bradford assay; details: dose 0.5-6 µg/ml
Staphylococcus aureus [6] = assay: Antibacterial activity against methicillin-resistant Staphylococcus aureus N315 assessed as increase in bactericidal effect at 2 to 8 ug/ml measured after 24 hrs by microplate reader assay; assay type: functional, organism-based; details: dose 2-8 µg/ml
Pseudomonas aeruginosa [7] = assay: Antibacterial activity against Pseudomonas aeruginosa assessed as inhibition of bacterial growth incubated for 24 hrs by CLSI protocol based two fold serial dilution method; assay type: functional
Pseudomonas aeruginosa [8] = assay: Antibacterial activity against Pseudomonas aeruginosa ATCC 27853 assessed as inhibition of bacterial growth incubated for 24 hrs by CLSI protocol based two fold serial dilution method; assay type: functional
Staphylococcus aureus [9] = assay: Antibacterial activity against methicillin-resistant Staphylococcus aureus N315 assessed as inhibition of bacterial growth incubated for 24 hrs by CLSI protocol based two fold serial dilution method; assay type: functional
Enterococcus faecalis = assay: Antibacterial activity against Enterococcus faecalis assessed as inhibition of bacterial growth incubated for 24 hrs by CLSI protocol based two fold serial dilution method; assay type: functional
[10] = Toxicity against Balb/c mouse assessed as body weight at 100 mg/kg, iv administered every 2 days measured after 1 week; assay type: organism-based; details: in vivo, 168 h, time 1 weeks
Escherichia coli [11] = assay: Antibacterial activity against Escherichia coli 25922 assessed as inhibition of bacterial growth incubated for 24 hrs by CLSI protocol based two fold serial dilution method; assay type: functional
Klebsiella pneumoniae = assay: Antibacterial activity against Klebsiella pneumonia assessed as inhibition of bacterial growth incubated for 24 hrs by CLSI protocol based two fold serial dilution method; assay type: functional
HeLa = assay: Cytotoxicity against human HeLa cells assessed as cell viability at 0.5 to 64 ug/ml incubated for 24 hrs by MTT assay; assay type: toxicity, cell-based; details: dose 0.5-64 µg/ml
Staphylococcus aureus [12] = assay: Antibacterial activity against methicillin-resistant Staphylococcus aureus N315 assessed as inhibition of bacterial growth at 0.25 to 64 ug/ml incubated for 24 hrs by Alamar blue assay; assay type: functional, organism-based; details: dose 0.25-64 µg/ml
Escherichia coli [13] = assay: Antibacterial activity against Escherichia coli assessed as inhibition of bacterial growth incubated for 24 hrs by CLSI protocol based two fold serial dilution method; assay type: functional
Staphylococcus aureus [14] = assay: Antibacterial activity against Staphylococcus aureus ATCC 12600 assessed as inhibition of bacterial growth incubated for 24 hrs by CLSI protocol based two fold serial dilution method; assay type: functional
[15] = Hemolytic activity in human RBC assessed as hemolysis at 1 to 32 ug/ml measured after 60 mins by microplate reader assay relative to control; assay type: toxicity, cell-based, Erythrocyte; details: red blood cells (erythrocytes), at 1 to 32 µg/mL, dose 1-32 µg/ml, read-out: Activity
Staphylococcus aureus [16] = assay: Antibacterial activity against Staphylococcus aureus ATCC 6583 assessed as inhibition of bacterial growth incubated for 24 hrs by CLSI protocol based two fold serial dilution method; assay type: functional
HEK-293T = assay: Cytotoxicity against human HEK293T cells assessed as cell viability at 0.5 to 64 ug/ml incubated for 24 hrs by MTT assay; assay type: toxicity, cell-based; details: dose 0.5-64 µg/ml
Staphylococcus aureus [17] = assay: Antibacterial activity against methicillin-resistant Staphylococcus aureus ATCC 43300 assessed as inhibition of bacterial growth incubated for 24 hrs by CLSI protocol based two fold serial dilution method; assay type: functional
Cell membrane [18] = assay: Induction of inner membrane permeabilization in methicillin-resistant Staphylococcus aureus N315 assessed as increase in PI uptake by measuring increase in fluorescence intensity at 1 to 8 ug/ml incubated for 30 mins by calcein-AM/PI staining based fluorescence microscopic analysis; details: dose 1-8 µg/ml, DDE = dose-dependent effect
Staphylococcus aureus [19] = assay: Antibacterial activity against Staphylococcus aureus CMCC (B) 26001 assessed as inhibition of bacterial growth incubated for 24 hrs by CLSI protocol based two fold serial dilution method; assay type: functional
Cell membrane [20] = assay: Induction of cell membrane disruption in methicillin-resistant Staphylococcus aureus N315 assessed as increase in nucleotides leakage at 0.5 to 6 ug/ml incubated under agitation condition by UV absorption based analysis; assay type: subcellular; details: dose 0.5-6 µg/ml
Acinetobacter baumannii = assay: Antibacterial activity against Acinetobacter baumannii assessed as inhibition of bacterial growth incubated for 24 hrs by CLSI protocol based two fold serial dilution method; assay type: functional
Staphylococcus aureus [21] = assay: Antibacterial activity against Staphylococcus aureus assessed as inhibition of bacterial growth incubated for 24 hrs by CLSI protocol based two fold serial dilution method; assay type: functional
Cell membrane [22] = assay: Induction of inner membrane permeabilization in Pseudomonas aeruginosa ATCC 27853 assessed as increase in PI uptake by measuring increase in fluorescence intensity at 1 to 8 ug/ml incubated for 30 mins by calcein-AM/PI staining based fluorescence microscopic analysis; details: dose 1-8 µg/ml
Cell membrane [23] = assay: Induction of cell membrane disruption in Pseudomonas aeruginosa ATCC 27853 assessed as increase in nucleotides leakage at 0.5 to 6 ug/ml incubated under agitation condition by UV absorption based analysis; assay type: subcellular; details: dose 0.5-6 µg/ml
Cell membrane [24] = assay: Induction of outer membrane permeabilization in Pseudomonas aeruginosa ATCC 27853 assessed as increase in NPN uptake by measuring increase in fluorescence intensity at 1 ug/ml by NPN-dye based fluorescence analysis; details: dose 1.0 µg/ml
Staphylococcus aureus [25] = assay: Antibacterial activity against methicillin-resistant Staphylococcus aureus N315 assessed as increase in germicidal effect at 0.5 ug/ml measured after 7 hrs by microplate reader assay; assay type: functional, organism-based; details: dose 0.5 µg/ml
Cell membrane [26] = assay: Induction of cell membrane disruption in Pseudomonas aeruginosa ATCC 27853 assessed as increase in protein leakage at 0.5 to 6 ug/ml incubated under agitation condition by Bradford assay; details: dose 0.5-6 µg/ml
Staphylococcus aureus [27] = assay: Antibacterial activity against methicillin-resistant Staphylococcus aureus N315 assessed as change in susceptibility at sub-MIC treated over 9 serial passages measured after 9 days by resistance development assay; assay type: functional, organism-based; details: time 9.0 day
Pseudomonas aeruginosa [28] = assay: Antibacterial activity against Pseudomonas aeruginosa ATCC 27853 assessed as change in susceptibility at sub-MIC treated over 9 serial passages measured after 9 days by resistance development assay; assay type: functional, organism-based; details: time 9.0 day
Staphylococcus aureus [29] = assay: Antibacterial activity against methicillin-resistant Staphylococcus aureus N315 assessed as increase in germicidal effect at 4 ug/ml measured after 7 hrs by microplate reader assay; assay type: functional, organism-based; details: dose 4.0 µg/ml
Erythrocyte = assay: Hemolytic activity in human RBC assessed as hemolysis rate at 1 to 32 ug/ml measured after 60 mins by microplate reader assay; assay type: toxicity, cell-based; details: 1 h, dose 1-32 µg/ml

In the case of `C=CCOc1cccc2c1c1ccccc1n2Cc1nnc(S)o1`, the Activity (Staphylococcus aureus [1]) is reported as “Active”, the MIC (Staphylococcus aureus [2]) is reported as 8 µg/mL (≈ 23.7 µM) and the MIC (Staphylococcus aureus [3]) is reported as 0.25 µg/mL (≈ 0.741 µM). For the same compound, the MIC (Staphylococcus aureus [4]) was 0.25 µg/mL (≈ 0.741 µM), the Activity (Cell membrane [5]) was “Active” and the Activity (Staphylococcus aureus [6]) was “Active”. It also gave an MIC (Pseudomonas aeruginosa [7]) of 128 µg/mL (≈ 379 µM), an MIC (Pseudomonas aeruginosa [8]) of 4 µg/mL (≈ 11.9 µM) and an MIC (Staphylococcus aureus [9]) of 2 µg/mL (≈ 5.93 µM). The MIC (Enterococcus faecalis) was 1 µg/mL (≈ 2.96 µM), the Activity [10] was “Non-Toxic” and the MIC (Escherichia coli [11]) was 0.25 µg/mL (≈ 0.741 µM). For the same compound, the MIC (Klebsiella pneumoniae) was 4 µg/mL (≈ 11.9 µM), the Activity (HeLa) was “Non-Toxic” and the Activity (Staphylococcus aureus [12]) was “Active”. The MIC (Escherichia coli [13]) was 4 µg/mL (≈ 11.9 µM), the MIC (Staphylococcus aureus [14]) was 0.25 µg/mL (≈ 0.741 µM) and the hemolysis at 1 h [15] was under 3%. The MIC (Staphylococcus aureus [16]) was 0.25 µg/mL (≈ 0.741 µM), the Activity (HEK-293T) was “Non-Toxic” and the MIC (Staphylococcus aureus [17]) was 0.25 µg/mL (≈ 0.741 µM). The Activity (Cell membrane [18]) was “Dde”, the MIC (Staphylococcus aureus [19]) was 0.25 µg/mL (≈ 0.741 µM) and the Activity (Cell membrane [20]) was “Active”. The MIC (Acinetobacter baumannii) was 0.25 µg/mL (≈ 0.741 µM) and the MIC (Staphylococcus aureus [21]) was 256 µg/mL (≈ 759 µM).
With `C=CCn1c2ccccc2c2c(OCc3nnn[nH]3)cccc21` the Activity (Staphylococcus aureus [1]) was “Active”, the MIC (Staphylococcus aureus [2]) was 64 µg/mL (≈ 210 µM) and the MIC (Staphylococcus aureus [3]) was 32 µg/mL (≈ 105 µM). For the same compound, the Activity (Cell membrane [22]) was “Active”, the MIC (Pseudomonas aeruginosa [7]) was 128 µg/mL (≈ 419 µM) and the MIC (Pseudomonas aeruginosa [8]) was 0.5 µg/mL (≈ 1.64 µM). For the same compound, the Activity (Cell membrane [23]) was “Active”, the MIC (Staphylococcus aureus [9]) was 2 µg/mL (≈ 6.55 µM) and the MIC (Enterococcus faecalis) was 4 µg/mL (≈ 13.1 µM). For the same compound, the MIC (Escherichia coli [11]) was 32 µg/mL (≈ 105 µM), the MIC (Klebsiella pneumoniae) was 64 µg/mL (≈ 210 µM) and the Activity (Cell membrane [24]) was “Active”. The Activity (HeLa) was “Non-Toxic”, the Activity (Staphylococcus aureus [12]) was “Active” and the MIC (Escherichia coli [13]) was 1 µg/mL (≈ 3.28 µM). The hemolysis at 1 h [15] was under 3%, the Activity (HEK-293T) was “Non-Toxic” and the Activity (Staphylococcus aureus [25]) was “Active”. The MIC (Acinetobacter baumannii) was 128 µg/mL (≈ 419 µM), the Activity (Cell membrane [26]) was “Active” and the MIC (Staphylococcus aureus [21]) was 128 µg/mL (≈ 419 µM).
With `Sc1nnc(Cn2c3ccccc3c3c(OCC4CC4)cccc32)o1` the Activity (Staphylococcus aureus [1]) was “Active”, the MIC (Staphylococcus aureus [2]) was 4 µg/mL (≈ 11.4 µM) and the MIC (Staphylococcus aureus [3]) was 1 µg/mL (≈ 2.85 µM). For the same compound, the Activity (Cell membrane [5]) was “Active”, the MIC (Pseudomonas aeruginosa [7]) was 256 µg/mL (≈ 728 µM) and the MIC (Pseudomonas aeruginosa [8]) was 4 µg/mL (≈ 11.4 µM). For the same compound, the MIC (Staphylococcus aureus [9]) was 0.5 µg/mL (≈ 1.42 µM), the MIC (Enterococcus faecalis) was 2 µg/mL (≈ 5.69 µM) and the Activity (Staphylococcus aureus [27]) was “Active”. The MIC (Escherichia coli [11]) was 1 µg/mL (≈ 2.85 µM), the MIC (Klebsiella pneumoniae) was 4 µg/mL (≈ 11.4 µM) and the Activity (Staphylococcus aureus [12]) was “Active”. For the same compound, the MIC (Escherichia coli [13]) was 2 µg/mL (≈ 5.69 µM), the hemolysis at 1 h [15] was under 3% and the Activity (Cell membrane [18]) was “Dde”. For the same compound, the Activity (Staphylococcus aureus [25]) was “Active”, the Activity (Cell membrane [20]) was “Active” and the MIC (Acinetobacter baumannii) was 4 µg/mL (≈ 11.4 µM). It also gave an MIC (Staphylococcus aureus [21]) of 256 µg/mL (≈ 728 µM).
`CCn1c2ccccc2c2c(OCc3nnc(S)o3)cccc21` showed an MIC (Staphylococcus aureus [2]) of 4 µg/mL (≈ 12.3 µM), an MIC (Staphylococcus aureus [3]) of 8 µg/mL (≈ 24.6 µM) and an MIC (Pseudomonas aeruginosa [7]) of 256 µg/mL (≈ 787 µM). It also gave an MIC (Pseudomonas aeruginosa [8]) of 0.5 µg/mL (≈ 1.54 µM), an MIC (Staphylococcus aureus [9]) of 2 µg/mL (≈ 6.15 µM) and an MIC (Enterococcus faecalis) of 8 µg/mL (≈ 24.6 µM). For the same compound, the Activity (Pseudomonas aeruginosa [28]) was “Active”, the MIC (Escherichia coli [11]) was 8 µg/mL (≈ 24.6 µM) and the MIC (Klebsiella pneumoniae) was 4 µg/mL (≈ 12.3 µM). It also gave an MIC (Escherichia coli [13]) of 8 µg/mL (≈ 24.6 µM), an MIC (Acinetobacter baumannii) of 8 µg/mL (≈ 24.6 µM) and an MIC (Staphylococcus aureus [21]) of 256 µg/mL (≈ 787 µM).
With `Sc1nnc(Cn2c3ccccc3c3c(OCC4CCCCC4)cccc32)o1` the Activity (Staphylococcus aureus [1]) was “Active”, the MIC (Staphylococcus aureus [2]) was 4 µg/mL (≈ 10.2 µM) and the MIC (Staphylococcus aureus [3]) was 4 µg/mL (≈ 10.2 µM). For the same compound, the MIC (Pseudomonas aeruginosa [7]) was 128 µg/mL (≈ 325 µM), the MIC (Pseudomonas aeruginosa [8]) was 4 µg/mL (≈ 10.2 µM) and the MIC (Staphylococcus aureus [9]) was 0.25 µg/mL (≈ 0.635 µM). The MIC (Enterococcus faecalis) was 4 µg/mL (≈ 10.2 µM), the Activity (Staphylococcus aureus [27]) was “Active” and the Activity (Staphylococcus aureus [29]) was “Active”. For the same compound, the MIC (Escherichia coli [11]) was 0.25 µg/mL (≈ 0.635 µM), the MIC (Klebsiella pneumoniae) was 4 µg/mL (≈ 10.2 µM) and the Activity (Staphylococcus aureus [12]) was “Active”. For the same compound, the MIC (Escherichia coli [13]) was 1 µg/mL (≈ 2.54 µM), the Activity (Erythrocyte) was “Toxic” and the MIC (Acinetobacter baumannii) was 0.5 µg/mL (≈ 1.27 µM). The MIC (Staphylococcus aureus [21]) was 256 µg/mL (≈ 651 µM).
